Assay results taken from the NIST ThermoML archive (doi:10.1021/je200668a).

Conditions: Liquid, Pulse Transmission

O [water]
Conditions | speed of sound [m/s]
318.1 K, 349600 kPa | 2061
318.1 K, 449800 kPa | 2181.8
318.11 K, 150100 kPa | 1787.1
318.11 K, 160100 kPa | 1802.4
318.11 K, 250600 kPa | 1930.2
318.12 K, 50400 kPa | 1623.1
318.12 K, 299900 kPa | 1996.4
318.12 K, 599100 kPa | 2350.3
318.12 K, 599600 kPa | 2346.3
318.12 K, 641800 kPa | 2388.1
318.13 K, 250400 kPa | 1930.2
318.13 K, 399600 kPa | 2121.7
318.14 K, 111200 kPa | 1725.7
318.14 K, 449700 kPa | 2182.1
318.14 K, 701800 kPa | 2454.2
318.15 K, 250000 kPa | 1930.6
318.15 K, 651000 kPa | 2405.8
318.16 K, 100 kPa | 1530.9
318.16 K, 401300 kPa | 2123.6
318.16 K, 549200 kPa | 2297.1
318.16 K, 559300 kPa | 2305.4
318.17 K, 50000 kPa | 1622.5
318.17 K, 499100 kPa | 2239.1
318.17 K, 499800 kPa | 2240.9
318.17 K, 549400 kPa | 2295.5
318.18 K, 450600 kPa | 2183.6
318.18 K, 702400 kPa | 2453.8
318.19 K, 200200 kPa | 1861.8
318.19 K, 499900 kPa | 2239.9
318.19 K, 651200 kPa | 2401.2
318.19 K, 701700 kPa | 2454.7
318.21 K, 99700 kPa | 1706.9
318.21 K, 602100 kPa | 2348.1
318.22 K, 150400 kPa | 1788.9
318.26 K, 49100 kPa | 1621.2
327.92 K, 641400 kPa | 2396.1
327.96 K, 560500 kPa | 2312.8
327.97 K, 701700 kPa | 2451.4
328.07 K, 550700 kPa | 2301.2
328.08 K, 109200 kPa | 1735.6
328.08 K, 350700 kPa | 2075.4
328.08 K, 499600 kPa | 2246.7
328.1 K, 150000 kPa | 1799.2
328.12 K, 100100 kPa | 1720.7
328.13 K, 200200 kPa | 1875.4
328.14 K, 50900 kPa | 1636.9
328.14 K, 300800 kPa | 2013.9
328.14 K, 450900 kPa | 2192
328.15 K, 300000 kPa | 2015.6
328.16 K, 159900 kPa | 1816
328.16 K, 351700 kPa | 2077.1
328.16 K, 399700 kPa | 2133
328.16 K, 499400 kPa | 2246.5
328.16 K, 601200 kPa | 2355.9
328.16 K, 601900 kPa | 2353.3
328.16 K, 700100 kPa | 2453.2
328.17 K, 50600 kPa | 1636.4
328.17 K, 200900 kPa | 1876.4
328.18 K, 250700 kPa | 1946.5
328.19 K, 100 kPa | 1541.1
328.19 K, 250700 kPa | 1947.4
328.21 K, 449800 kPa | 2189.2
328.21 K, 652700 kPa | 2406.9
328.22 K, 400100 kPa | 2137.3
328.27 K, 100 kPa | 1542.1
328.49 K, 99800 kPa | 1720.6
328.66 K, 650700 kPa | 2404.5
328.69 K, 300000 kPa | 2012.1
328.72 K, 200100 kPa | 1874.3
328.72 K, 400500 kPa | 2138.4
328.72 K, 551000 kPa | 2304.7
328.73 K, 50900 kPa | 1637.5
328.74 K, 449200 kPa | 2194.3
328.76 K, 100 kPa | 1543.9
328.76 K, 601300 kPa | 2354.9
328.77 K, 350900 kPa | 2076.6
328.77 K, 700400 kPa | 2453.8
328.83 K, 150100 kPa | 1799.9
328.9 K, 250100 kPa | 1944.4
328.92 K, 499400 kPa | 2250.4
337.66 K, 150000 kPa | 1810.9
337.69 K, 350500 kPa | 2086.1
337.69 K, 399100 kPa | 2142.9
337.75 K, 200500 kPa | 1886
337.8 K, 501100 kPa | 2260
337.85 K, 300700 kPa | 2024
337.87 K, 50100 kPa | 1643.6
337.95 K, 100500 kPa | 1731.6
338.02 K, 100 kPa | 1547.4
338.04 K, 601100 kPa | 2360.1
338.07 K, 650600 kPa | 2410.2
338.12 K, 451000 kPa | 2203.4
338.15 K, 250300 kPa | 1956.7
338.22 K, 549600 kPa | 2309.8
338.22 K, 700800 kPa | 2455.7
349.03 K, 601700 kPa | 2366
349.12 K, 500600 kPa | 2267.1
349.18 K, 49900 kPa | 1647.8
349.19 K, 100 kPa | 1549
349.22 K, 150700 kPa | 1818.4
349.22 K, 300400 kPa | 2029.7
349.27 K, 549200 kPa | 2313.8
349.28 K, 400700 kPa | 2153
349.3 K, 250900 kPa | 1965
349.32 K, 349800 kPa | 2091.6
349.35 K, 450800 kPa | 2209.4
349.41 K, 100400 kPa | 1737.3
349.59 K, 651400 kPa | 2412.5
349.68 K, 200700 kPa | 1892.8
349.72 K, 704500 kPa | 2445.1
